According to patent US5569668A (priority 1995, dated 1996):
In brackets after ≈: the same amount, converted by molar mass. Read-outs that look alike come from different tables or passages of the source.

Legend:
Assay type in all cases: cell-based
Bacillus subtilis = assay: MIC of nematophin on candidate microbial pathogens (Bacillus subtilis); conditions: 24 h, 35° C., Table 1, read-out: Minimum Inhibitory Concentration (MIC)
Botrytis cinerea = assay: MIC of nematophin on candidate microbial pathogens (Botrytis cinerea); conditions: 48 h, 2 d, 24° C., Table 1, read-out: Minimum Inhibitory Concentration (MIC)
[1] = test system: Escherichia coli ATCC25922; assay: MIC of nematophin on candidate microbial pathogens (Escherichia coli ATCC25922); conditions: 24 h, 35° C., Table 1, read-out: Minimum Inhibitory Concentration (MIC)
Phytophthora infestans = assay: microbe, parasite or virus in culture; conditions: in Secale cereale, 96 h, read-out: Minimum Inhibitory Concentration (MIC)
[2] = test system: Staphylococcus aureus ATCC29213; assay: MIC of nematophin and its derivatives on Staphylococcus aureus ATCC29213
S. aureus 0012 = assay: microbe, parasite or virus in culture; conditions: Staphylococcus aureus, 0012, 24 h; read-out: Minimum Inhibitory Concentration (MIC)
S. aureus 0017 = assay: microbe, parasite or virus in culture; conditions: Staphylococcus aureus, 0017, 24 h; read-out: Minimum Inhibitory Concentration (MIC)
[3] = test system: antibiotic resistant Staphylococcus; conditions: conclusion from Table 1 MICs
[4] = 24 h, 35° C., Table 1, read-out: Minimum Inhibitory Concentration (MIC)
[5] = Table 2, similar bioassays as for nematophin, read-out: Minimum Inhibitory Concentration (MIC) of the derivatives of nematophin

CCC(C)C(=O)C(=O)NCCc1c[nH]c2ccccc12 (racemic) [SID, 3-indoleethyl(3'-methyl-2'-oxo)pentanamide]
MIC (Bacillus subtilis): 12 µg/mL
MIC (Botrytis cinerea): 12 µg/mL
MIC [1]: > 100 µg/mL
MIC (Phytophthora infestans): 2.5 µg/mL (≈ 9.18 µM)
MIC [2, 4]: 1.5 µg/mL
MIC (S. aureus 0012): 1.5 µg/mL (≈ 5.51 µM)
MIC (S. aureus 0017): 1.5 µg/mL (≈ 5.51 µM)
antibiotic properties, in particular against antibiotic resistant Staphylococcus [3]: potent properties

CCC(C)C(=O)C(=O)NCCc1c[nH]c2ccccc12 (single isomer, unassigned) [NID, 3-indoleethyl 3-methyl-2-oxo-pentanamide]
MIC (Bacillus subtilis): 12 µg/mL
MIC (Botrytis cinerea): 12 µg/mL
MIC [1]: > 100 µg/mL
MIC [2, 4]: 0.7 µg/mL
MIC (S. aureus 0012): 0.7 µg/mL (≈ 2.57 µM)
MIC (S. aureus 0017): 0.7 µg/mL (≈ 2.57 µM)
antibiotic properties, in particular against antibiotic resistant Staphylococcus [3]: potent properties

CCC(C)C(=O)C(=O)NCCc1c[nH]c2ccc(C)cc12 (stereo not shown) [5-MeIN]
MIC [2, 5]: 3 µg/mL

CCC(C)C(=O)C(=O)NCCc1c[nH]c2ccc(OC)cc12 (stereo not shown) [5-MeOIN]
MIC [2, 5]: 3 µg/mL

CCC(C)C(=O)C(=O)NCCc1c[nH]c2cc(F)ccc12 (stereo not shown) [6-FIN]
MIC [2, 5]: 0.7 µg/mL

CCC(=O)C(=O)NCCc1c[nH]c2ccccc12 [BAMIDE, 3-indoleethyl(2'-oxo)butanamide]
MIC [2, 5]: 100 µg/mL

CC(C)C(=O)C(=O)NCCc1c[nH]c2ccccc12 [MAMIDE]
MIC [2, 5]: 3 µg/mL

CCC(C)C(=O)C(=O)OCCc1c[nH]c2ccccc12 (stereo not shown) [OIN, 3-indoleethyl(3'-methyl-2'-oxo)pentanoate]
MIC [2, 5]: 25 µg/mL

CC(=O)C(=O)NCCc1c[nH]c2ccccc12 [PAMIDE, 3-indoleethyl(2'-oxo)propanamide]
MIC [2, 5]: 100 µg/mL
